These results are taken from publication PMC8156061, “Design, Synthesis, and Anticancer Screening for Repurposed Pyrazolo[3,4-d]pyrimidine Derivatives on Four Mammalian Cancer Cell Lines” (Molecules, 2021).

The IC50 is the concentration needed to halve the response being measured.

One series deals with male albino rats. As to the kind of experiment: In vivo toxicity evaluation: serum hepatic and renal biochemical parameters in rats. Details: species or system rat. Particulars: 20 mg/kg/day orally twice weekly for 6 weeks; for ALP / ALT / AST / Albumin / Bilirubin / Cholesterol / Triglyceride: rat serum; for Overall in vivo toxicity assessment: rats, versus healthy control group. The source says: Before the assessment of the anticancer activity of the compounds, in the present study, we examined their toxicity in vivo on normal tissues.
Male albino rats (150 g average weight) were purchased from the animal house of the Institute of Graduate Studies and Research, Alexandria University, Egypt. The animals were housed under standardized environmental conditions, fed with a standard diet and water, and left to acclimate to the environment for one week prior to inclusion in the experiment. All of the animal experiments were conducted in accordance with the guidelines for the care and use of laboratory animals of the National Institutes of Health (NIH 1985). The experimental procedures employed were ethically reviewed and approved by the Institutional Animal Care and Use Committee (IACUC) of Alexandria University (Ethical approval number of the study: AU14-200922-1-8A) and “declaration of Helsinki”. Four groups of rats were administered 20 mg/kg/day of compounds 5, 6, and 7 orally twice weekly for 6 weeks. Liver enzymes and other liver biomarkers together with creatinine and urea were measured (Table 1).
The collected blood was allowed to clot, the serum was separated at 2000× g, and the biochemical markers of hepatic damage, including serum ALT, AST [33], ALP [34], albumin [35], total bilirubin [36], TG [37], urea, creatinine, and total cholesterol, were estimated according to previously reported methods. These parameters were determined using available commercial kits (ARE) following the instructions of the manufacturer.

The test system of the next series is Hela cells. As to the kind of experiment: Cell viability, crystal violet staining, Hela. The class given is cell-based, human. Particulars: 48 h; for first concentration with significant reduction in cell viability: versus control; for IC50: Homo sapiens, HeLa. The method, then:
(§1) A (4,5-dimethylthiazol-2-yl)-2,5-diphenyltetrazolium) MTT assay was used for the determination of the cytotoxic effects of three compounds (5, 6, and 7) in vitro (Figure 9). Hela, HT1080, Caco-2, and A549 cells were treated with various concentrations of the compounds employed in the current study (0, 1, 10, 50, 100, 500 µM) for 48 h.
(§2) Figure 9 Normalised percentage cell viability inhibition of compounds 5 and 7, measured by three independent MTT assays in A549 and Caco-2 cell lines and by three independent experiments with crystal violet staining in Hela and HT1080 cell lines. Cells were treated with different concentrations (from 1 and up to 500 µM) of the compounds for 48 h, * = first concentration significant reduction in cell viability in comparison to the control.
(§3) Human fibrosarcoma (HT1080), cervical cancer (Hela), colorectal cancer (Caco-2), and human lung cancer cell lines (A549) were purchased from […] (ECACC, Salisbury, UK). Cervical cancer cells (Hela) and fibrosarcoma cells (HT-1080) were maintained in a RPMI medium supplemented with 10% foetal bovine serum (FBS) and were expanded at 37 °C and 5% CO2. Caco-2 and A549 cells were grown in Dulbecco’s modified eagle medium (DMEM)-high glucose (biowest, Riverside, MO, USA) enriched with (10% v/v) (foetal bovine serum) FBS (biowest, Riverside, MO, USA) and antibiotics (100 U/mL penicillin, 100 μg mL streptomycin) (Lonza, Basel, Switzerland). Cells were maintained at 37 °C in an incubator with 5% CO2 atmosphere. Part of the experiments were carried out in CERRMA (Center of Excellence for Research in Regenerative Medicine and its Applications), Faculty of Medicine, Alexandria University.
(§4) Cervical Hela and HT-1080 cells (2 × 10^4 per well) were seeded in 96-well tissue culture plates in 100 μL cell culture medium. Cells were incubated for 48 h in triplicates with the compounds of interest. The cytotoxic effect was assessed by crystal violet staining and measured at 595 nm. To normalize cell viability values each plate included a triplicate of cells treated with DMSO, the vehicle of the compound to calculate 100% viable cells. At the same time, a triplicate of cells was simulated with a cytotoxic combination (200 ng/mL TNF, 200 ng/mL CD95L, 200 ng/mL TRAIL, 25 µg/mL CHX, 1% (w/v) sodium azide) to elucidate maximal cell death, and thus 0% viability. All other viability values were normalized depending on the averages of these triplicates and evaluated by the Graph Pad Prism 5 software (La Jolla, CA, USA).

In a further series the test system is Caco-2 cells. In words: Cell viability, MTT assay, Caco-2. The conditions noted are these: for IC50: Homo sapiens. Format: cell-based, human. The method, then: as §1, §2, §3
(§5) The cell viability of A549 and Caco-2 cells was measured using MTT assays. Cells were incubated for 48 h in triplicates with the compounds of interest. […] Cells were seeded in 96-well plates at a density of 5 × 10^3 cells/well and were maintained in complete media. After adherence for 48 h, cells were treated with different concentrations of newly synthesized compounds ranging from […]. The plates were incubated at 5% CO2 and 37 °C. After 48 h, the medium was discarded, and cells were incubated with 100 μL MTT (Serva, Heidelberg, Germany) solution (0.5 mg/mL) for 3 h at 5% CO2 and 37 °C. Finally, the reagent was discarded and replaced with 100 μL DMSO. The optical density was measured at a wavelength of 570 nm (Tecan, Infinite F50, Magellan reader control and data analysis software, Mennedov, Switzerland). The percentage cell viability data were obtained by normalization of the optical density (OD) values for all groups to the OD of the control group.

Series [1] has as its system A549 cells. As to the kind of experiment: Cell viability, MTT assay, A549. Format: cell-based, human. Particulars: for first concentration with significant reduction in cell viability / IC50: A549, 48 h; for first concentration with significant reduction in cell viability: versus control; for IC50: Homo sapiens. The method, then: as §1, §2, §3, §5
In general terms: Tetrazolium dyes change colour on reduction, which living cells bring about.

A further series deals with HT1080 cells. In words: Cell viability, crystal violet staining, HT1080. Format: cell-based, human. Particulars: for first concentration with significant reduction in cell viability / IC50: HT1080, 48 h; for first concentration with significant reduction in cell viability: versus control; for IC50: Homo sapiens, HT-1080. The method, then:
as §1, §2, §3, §4

Series [2] deals with Ki67 expression in A549 cells. In words: Proliferation assay, Ki67 expression by flow cytometry. Format: cell-based, human. Particulars: A549, IC50 concentration, 48 h; control cells 85.61%. The method, then: (§6) Figure 10 (a) Apoptosis analysis in A549 cells following treatment of cells with compound 7 at IC50 concentration. Flowcytometry was conducted using Alexa Fluor 488 annexin V conjugate. […] (b) Western blot analysis showing cleaved caspase-3 protein expression level. […] (c) Proliferation analysis (Ki67) in A549 cells following treatment cells with compound 7 at IC50 concentration. The analysis was done using flow cytometry and the Ki-67 FITC antibody.
Ki67 expression was determined using a flow cytometry assay. […] The percentage of cells labelled using Ki67 antibody in the control cells was 85.61%, whereas those labelled with the same antibody following treatment with compound 7 was 68.06%.
For evaluating the proliferation status of cells, cells were plated in 6-well plates at a density of 2 × 10^4 cells per well for the cell proliferation assay. After incubation for 24 h, 70% confluency is reached.

The test system of series [3] is cleaved caspase-3 protein. In words: Western blot of cleaved caspase-3 protein expression. The class given is cell-based. The conditions noted are these: IC50 concentration, versus untreated cells. The method, then: (§7) In order to exclude apoptotic effects as a mechanism for the observed anticancer activity of the compounds and according to the in silico results, induction of apoptosis by compound 7 was examined using an annexin V flow cytometry assay (Figure 10a).
as §6
A western blot assay was carried out to examine cleaved caspase-3 protein expression levels following the different treatments with different concentrations of the compound that were employed in the current study. Cells (5 × 10^5 cells/well) were seeded in 12-well plates and were induced the next day with the compounds of interest for 48 h. […] The proteins of interest were detected with a suitable primary antibody (Anti-Caspase-3, 17,19 kD, Rabbit polyclonal ≠ 9661, from Cell Signaling Technology, Beverly, MA, USA) and horseradish peroxidase conjugated secondary antibodies (Dako, Glostrup, Denmark and Cell Signaling Technology, Beverly, MA, USA).

In series [4] the test system is A549 cells. In words: Apoptosis assay, annexin V flow cytometry. Format: cell-based, human. The method, then: as §7, §6
For evaluating cell apoptosis, cells were plated in 6-well plates at a density of 2 × 10^4 cells per well. After incubation for 24 h, 70% confluency is reached. Cells were then labelled using the FITC Annexin V apoptosis detection kit I (BD Pharminogen, San Diego, CA, USA) according to manufacturer’s instructions (Cell Signaling Technology; Flow Cytometry, Methanol Permeabilization Protocol) and analysed by using BD FACS Calibur flow cytometry and Cell Quest™ software.

Another series deals with BCR-ABL tyrosine kinase. Also noted: method as in earlier work. The conditions noted are these: literature statement; cited from earlier work.

In the series with male albino rats, `COc1ccc(C=NNc2ncnc3c2cnn3-c2ccccc2)cc1` [Compound 5, 2-(4-Methoxybenzylidene)-1-(1-phenyl-1H-pyrazolo[3,4-d]pyrimidin-4-yl)hydrazine] gave an ALP of 2.1 ± 0.52 U/L, an ALT of 43 ± 5.2 U/L, an AST of 102 ± 8.7 U/L and an Albumin of 4.4 ± 0.37 g/dL. Further, in the series on male albino rats, the Bilirubin was found to be 0.11 ± 0.12 mg/dL, the Cholesterol was determined as 71 ± 4.8 mg/dL, the Triglyceride was 72 ± 8.6 mg/dL and the “Overall in vivo toxicity assessment” value was “safe compounds comparable to the healthy control group”. The “first concentration with significant reduction in cell viability” value in the series on Hela cells (Hela) came out at 50 µM. Also, the IC50 with Hela cells came out at 74.8 µM. Further, the IC50 with Caco-2 cells (Caco-2, 48 h) stood at 76.9 µM. Moreover, in the series on A549 cells [1], the “first concentration with significant reduction in cell viability” value was 50 µM and the IC50 came out at 148 µM. In the series with HT1080 cells, the “first concentration with significant reduction in cell viability” value is on record as 50 µM and the IC50 came out at 96.2 µM.

`COc1cc(C=NNc2ncnc3c2cnn3-c2ccccc2)cc(OC)c1OC` [Compound 7, 2-(3,4,5-Trimethoxybenzylidene)-1-(1-phenyl-1H-pyrazolo[3,4-d]pyrimidin4yl)hydrazine]: the “percentage of cells labelled using Ki67 antibody” value in [2] is on record as 68.06%. In the series with male albino rats, this molecule came in with an ALP of 1.8 ± 0.88 U/L, an ALT of 42 ± 7.2 U/L, an AST of 103 ± 8.8 U/L and an Albumin of 4.6 ± 1.1 g/dL. Also, in the series on male albino rats, the Bilirubin amounted to 0.11 ± 0.32 mg/dL, the Cholesterol worked out at 71 ± 5.8 mg/dL, the Triglyceride is recorded as 77 ± 7.5 mg/dL and the “Overall in vivo toxicity assessment” value is on record as “safe compounds comparable to the healthy control group”. Besides, the “first concentration with significant reduction in cell viability” value in the series on Hela cells (Hela) worked out at 12.5 µM. Also, in the series with Hela cells, the concentration for half-maximal inhibition (IC50) was determined as 17.5 µM. The “first concentration with significant reduction in cell viability” value with Caco-2 cells (Caco-2, 48 h, versus control) was determined as 1 µM. The IC50 in the series on Caco-2 cells (Caco-2, 48 h) was 73.1 µM. The “change in cleaved caspase-3 protein expression level” value in [3] was “no significant change”. In the series with A549 cells [1], the “first concentration with significant reduction in cell viability” value was determined as 1 µM and the IC50 came out at 68.8 µM. Besides, in the series with HT1080 cells, the “first concentration with significant reduction in cell viability” value was determined as 25 µM and the IC50 turned out to be 43.8 µM. For the same molecule, the “effect on viability of cells through apoptosis” value in the series on A549 cells [4] (A549, 24 h incubation, versus untreated group) was “no significant effect”. Besides, in the series with A549 cells [4] (A549, IC50 concentration, control untreated 97.8), the “percentage gating in the lower left quadrant (annexin V)” value was found to be 97.58%.

As to `COc1ccc(/C=N/Nc2ncnc3c2cnn3-c2ccccc2)cc1OC` [Compound 6], the “inhibition of BCR-ABL tyrosine kinase” value with BCR-ABL tyrosine kinase is recorded as “capable of inhibiting BCR-ABL tyrosine kinase”. Further, in the series on male albino rats, the ALP came out at 2 ± 0.12 U/L, the ALT was determined as 44 ± 5.7 U/L, the AST is recorded as 100 ± 9.8 U/L and the Albumin turned out to be 4.6 ± 1.8 g/dL. Also, in the series with male albino rats, the Bilirubin worked out at 0.12 ± 0.12 mg/dL, the Cholesterol was 69 ± 7.8 mg/dL, the Triglyceride is listed as 75 ± 6.5 mg/dL and the “Overall in vivo toxicity assessment” value is on record as “safe compounds comparable to the healthy control group”. Besides, the “effect on cell viability” value with Hela cells (Hela, up to 500 µM, data not shown) is given as “did not show any significant decrease in the cell viability”. Further, in the series on Caco-2 cells (Caco-2, up to 500 µM, 48 h, data not shown), the “effect on cell viability” value is “did not show any significant decrease in the cell viability”. Also, in the series on A549 cells [1] (A549, up to 500 µM, 48 h, data not shown), the “effect on cell viability” value was “did not show any significant decrease in the cell viability”. Also, the “effect on cell viability” value in the series with HT1080 cells (HT1080, up to 500 µM, 48 h, data not shown) is reported as “did not show any significant decrease in the cell viability”.
